Laboratory results reported in ChEMBL document CHEMBL1132830, “Serotonin transporter inhibitors: synthesis and binding potency of 2'-methyl- and 3'-methyl-6-nitroquipazine” (Bioorg Med Chem Lett, 2000).

Tests used:
[1] = target: Sodium-dependent serotonin transporter (Rattus norvegicus, UniProt P31652); test: In vitro radioligand [3H]-paroxetine from rat cortical Serotonin transporter
[2] = Equipotent molar ratio of compound to that of standard (compound 1) was evaluated

Sodium-dependent serotonin transporter, sequence (P31652 whole entry): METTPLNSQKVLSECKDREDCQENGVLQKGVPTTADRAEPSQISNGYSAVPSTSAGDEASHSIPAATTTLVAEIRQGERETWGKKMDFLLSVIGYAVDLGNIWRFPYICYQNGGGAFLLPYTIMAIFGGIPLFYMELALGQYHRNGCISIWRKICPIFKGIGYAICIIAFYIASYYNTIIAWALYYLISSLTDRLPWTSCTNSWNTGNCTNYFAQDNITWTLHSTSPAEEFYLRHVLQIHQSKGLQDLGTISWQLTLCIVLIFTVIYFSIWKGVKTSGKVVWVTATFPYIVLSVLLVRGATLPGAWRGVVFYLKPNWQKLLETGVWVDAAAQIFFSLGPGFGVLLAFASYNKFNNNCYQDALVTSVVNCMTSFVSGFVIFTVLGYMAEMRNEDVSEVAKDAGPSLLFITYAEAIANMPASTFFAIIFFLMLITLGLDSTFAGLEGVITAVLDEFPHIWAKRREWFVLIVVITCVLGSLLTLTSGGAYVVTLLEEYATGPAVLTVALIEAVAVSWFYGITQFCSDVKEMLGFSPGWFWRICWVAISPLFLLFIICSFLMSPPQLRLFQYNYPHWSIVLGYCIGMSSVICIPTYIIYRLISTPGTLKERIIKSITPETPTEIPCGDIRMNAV

Structure (SMILES)	Ki [1]	Ratio [2]
CC1CNCCN1c1ccc2cc([N+](=O)[O-])ccc2n1 (configuration not stated)	0.081 nM	0.49
O=[N+]([O-])c1ccc2nc(N3CCNCC3)ccc2c1I	0.19 nM	
CC1CN(c2ccc3cc([N+](=O)[O-])ccc3n2)CCN1 (configuration not stated)	4.56 nM	28
O=[N+]([O-])c1ccc2nc(N3CCNCC3)ccc2c1 [6-NITROQUIPAZINE]	0.163 nM	1
